Legend:
[1] = system: diamond back moth (Plutella xylostella); format: in vivo; conditions: 1,000 ppm; Chinese cabbage seedling with eggs immersed about 30 seconds; counted six days after the immersion; 25° C.
Source text: Insecticidal effect on diamond back moth (Plutella xylostella)
Adult diamond back moths were released and allowed to oviposit on a Chinese cabbage seedling. […] Six days after the immersion, the hatched insects were counted. […] [formula] Criterion • A - - - Mortality 100% • B - - - Mortality 99-90% • C - - - Mortality 89-80% • D - - - Mortality 79-50%

[2] = system: Common cutworm (Spodoptera litura); format: in vivo; conditions: 500 ppm; cabbage leaf immersed about 30 seconds; second-instar larvae; eight days after the inoculation; 25° C.
Source text: Insecticidal Effect on Common cutworm (Spodoptera litura)

SMILES | insecticidal effect (activity ranking by mortality) [1] | insecticidal effect (activity ranking by mortality) [2]
CSCC(C)(C)NC(=O)c1c(C(=O)Nc2ccc(OC(C(F)(F)F)C(F)(F)F)nc2C)cccc1[N+](=O)[O-] [Q27-352] | B or higher | B or higher
Cc1nc(OC(C(F)(F)F)C(F)(F)F)ccc1NC(=O)c1cccc(C(F)(F)F)c1C(=O)NC(C)(C)C[S+](C)[O-] (stereo not drawn) [Q27-360] | B or higher | B or higher
Cc1cc(C(F)(C(F)(F)F)C(F)(F)F)cnc1NC(=O)c1cccc(I)c1C(=O)NC(C)C [Q26-11] | B or higher | B or higher
CSCC(C)(C)NC(=O)c1c(I)cccc1C(=O)Nc1c(Cl)cc(C(F)(C(F)(F)F)C(F)(F)F)nc1Cl [Q27-240] | B or higher | B or higher
Cc1nc(OC(C(F)(F)F)C(F)(F)F)ccc1NC(=O)c1cccc(C(F)(F)F)c1C(=O)NC(C)C [Q27-354] | B or higher | B or higher
CCN(CC)C(=O)c1c(I)cccc1C(=O)Nc1ccc(C(F)(C(F)(F)F)C(F)(F)F)nc1Cl [Q27-231] | B or higher | B or higher
Cc1nc(C(F)(C(F)(F)F)C(F)(F)F)ccc1NC(=O)c1cccc(I)c1C(=O)NC(C)(C)C[S+](C)[O-] (stereo not drawn) [Q27-153] | B or higher | B or higher
CSCC(C)NC(=O)c1c(I)cccc1C(=O)Nc1ccc(C(F)(C(F)(F)F)C(F)(F)F)nc1Cl (stereo not drawn) [Q27-232] | B or higher | B or higher
Cc1nc(OC(C(F)(F)F)C(F)(F)F)ccc1NC(=O)c1ccc(Cl)c(Cl)c1C(=O)NC(C)C [Q27-332] | B or higher | B or higher
Cc1c(C(F)(F)F)noc1NC(=O)c1cccc(I)c1C(=O)NC(C)C [Q6-8, N^1-(4-methyl-3-trifluoromethyl-isoxazol-5-yl)-N^2-isopropyl-3-iodophthalamide] | B or higher | –
Cc1nc(OC(F)(F)C(F)F)ccc1NC(=O)c1cccc(I)c1C(=O)NC(C)C [Q27-378] | B or higher | B or higher
Cc1cc(C(C)(C)C)sc1NC(=O)c1cccc(I)c1C(=O)NC(C)C [Q1-12] | B or higher | –
CSc1nc(C(F)(C(F)(F)F)C(F)(F)F)ccc1NC(=O)c1cccc(I)c1C(=O)NC(C)C [Q27-246] | B or higher | B or higher
CC(C)NC(=O)c1c(Cl)cccc1C(=O)Nc1ccc(C(F)(C(F)(F)F)C(F)(F)F)nc1Cl [Q27-459] | – | B or higher
Cc1nc(C(F)(C(F)(F)F)C(F)(F)F)ccc1NC(=O)c1cccc(I)c1C(=O)NC(C)(C)CS(C)(=O)=O [Q27-155] | B or higher | B or higher
CCNC(=O)c1c(I)cccc1C(=O)Nc1cnc(C(F)(C(F)(F)F)C(F)(F)F)cn1 [Q34-46] | B or higher | B or higher
Cc1sc(I)nc1NC(=O)c1cccc(I)c1C(=O)NC(C)C [Q9-15] | B or higher | –
Cc1nc(OC(C(F)(F)F)C(F)(F)F)ccc1NC(=O)c1cccc(Cl)c1C(=O)NC(C)(C)C [Q27-298] | B or higher | B or higher
Cc1nc(OC(C(F)(F)F)C(F)(F)F)ccc1NC(=O)c1cccc(C(F)(F)F)c1C(=O)NC(C)(C)C [Q27-355] | B or higher | B or higher
Cc1nc(Oc2ccc(C(F)(F)F)cc2)ccc1NC(=O)c1cccc(I)c1C(=O)NC(C)C [Q27-466] | – | B or higher
CSCC(C)(C)NC(=O)c1c(I)cccc1C(=O)Nc1ccc(C(F)(C(F)(F)F)C(F)(F)F)nc1C [Q27-243] | B or higher | B or higher
CSCC(C)NC(=O)c1c(C(=O)Nc2ccc(OC(C(F)(F)F)C(F)(F)F)nc2C)ccc(Cl)c1Cl (stereo not drawn) [Q27-334] | B or higher | B or higher
Cc1cc(C(C)(C)C)sc1NC(=O)c1c(I)cccc1C(=O)NC(C)C [Q1-41] | B or higher | –
CSCC(C)(C)NC(=O)c1c(C(=O)Nc2ccc(OC(C(F)(F)F)C(F)(F)F)nc2C)cccc1C(F)(F)F [Q27-359] | B or higher | B or higher
CC(C)NC(=O)c1c(Cl)cccc1C(=O)Nc1cc(-c2ccc(Br)cc2)on1 [Q4-6] | B or higher | –
CC(C)NC(=O)c1c(Cl)cccc1C(=O)Nc1nc(C(F)(F)F)cs1 [Q8-3] | B or higher | –
Cc1nc(OCC(F)(F)C(F)(F)F)ccc1NC(=O)c1cccc(I)c1C(=O)NC(C)C [Q27-413] | B or higher | B or higher
Cc1nc(OC(C(F)(F)F)C(F)(F)F)ccc1NC(=O)c1ccc(Cl)c(Cl)c1C(=O)NC(C)C[S+](C)[O-] (stereo not drawn) [Q27-335] | B or higher | B or higher

SMILES | insecticidal effect (activity ranking by mortality) [1] | insecticidal effect (activity ranking by mortality) [2]
COc1nc(C(F)(C(F)(F)F)C(F)(F)F)ccc1NC(=O)c1cccc(I)c1C(=O)NC(C)CSC (stereo not drawn) [Q27-241] | B or higher | B or higher
CCCNC(=O)c1c(Cl)cccc1C(=O)Nc1nc(C)c(Oc2ccccc2)n1C [Q8-11] | B or higher | –
CC(C)NC(=O)c1c(I)cccc1C(=O)Nc1c(Cl)ncnc1Cl [Q32-11] | B or higher | –
C[S+]([O-])CC(C)(C)NC(=O)c1c(I)cccc1C(=O)Nc1ccc(C(F)(C(F)(F)F)C(F)(F)F)nc1Cl (stereo not drawn) [Q27-235] | B or higher | B or higher
CSCC(C)(C)NC(=O)c1c(I)cccc1C(=O)Nc1ccc(OC(F)(F)C(F)F)nc1Cl [Q27-388] | B or higher | B or higher
CCN(CC)C(=O)c1c(I)cccc1C(=O)Nc1cnccn1 [Q34-30] | B or higher | –
CC(C)NC(=O)c1cccc(Cl)c1C(=O)Nc1nc(-c2ccccc2)cs1 [Q8-14] | B or higher | –
CC(C)NC(=O)c1cccc(Cl)c1C(=O)Nc1nc(-c2ccccc2)c(Cl)s1 [Q8-15] | B or higher | –
COc1nc(NC(=O)c2cccc(I)c2C(=O)NC(C)C)nc(OC)c1C(F)(C(F)(F)F)C(F)(F)F [Q33-10] | B or higher | –
CCN(CC)C(=O)c1c(I)cccc1C(=O)Nc1nc(-c2ccc(Cl)cc2)cs1 [Q8-53] | B or higher | –
Cc1c(NC(=O)c2cccc(I)c2C(=O)NC(C)C)noc1C(F)(F)F [Q4-12] | B or higher | –
CC(C)NC(=O)c1c(I)cccc1C(=O)Nn1cnnc1 [Q15-1] | B or higher | –
Cc1csc(NC(=O)c2cccc(Cl)c2C(=O)NC(C)C)n1 [Q8-2] | B or higher | –
Cc1nc(OC(F)(F)C(F)C(F)(F)F)ccc1NC(=O)c1cccc(I)c1C(=O)NC(C)C (stereo not drawn) [Q27-391] | B or higher | –
CSCC(C)(C)NC(=O)c1c(I)cccc1C(=O)Nc1ccc(OC(F)(F)C(F)C(F)(F)F)nc1C (stereo not drawn) [Q27-393] | B or higher | –
Cc1c(NC(=O)c2c(Cl)cccc2C(=O)NC(C)C)noc1-c1ccc(Cl)cc1 [Q4-8] | B or higher | –
COc1cc(OC)nc(NC(=O)c2ccccc2C(=O)NC(C)C)n1 [Q33-1] | B or higher | –
Cc1nc(C(F)(C(F)(F)F)C(F)(F)F)ccc1NC(=O)c1cccc(I)c1C(=O)NC(C)(C)C[S+](C)[O-] (stereo not drawn) [Q27-244] | B or higher | –
CSCC(C)(C)NC(=O)c1c(I)cccc1C(=O)Nc1ccc(OC(F)(F)C(F)C(F)(F)F)nc1C (stereo not drawn) [Q27-396] | B or higher | –
Cc1ccsc1NC(=O)c1c(I)cccc1C(=O)NC(C)C [Q1-42] | B or higher | –
CC(C)NC(=O)c1c(Cl)cccc1C(=O)Nc1nc(-c2ccccc2)c(Cl)s1 [Q8-5] | B or higher | –
Cc1cc(NC(=O)c2cccc([N+](=O)[O-])c2C(=O)NC(C)C)n(C)n1 [Q6-6] | B or higher | –
Cc1c(NC(=O)c2c(I)cccc2C(=O)NC(C)C)noc1C(F)(F)F [Q4-45] | B or higher | –
CC(C)NC(=O)c1cccc(Cl)c1C(=O)Nc1nc(C(F)(F)F)cs1 [Q8-13] | B or higher | –
CC(C)NC(=O)c1c(Cl)cccc1C(=O)Nc1nccs1 [Q8-1] | B or higher | –
Cc1cc(C(F)(C(F)(F)F)C(F)(F)F)ncc1NC(=O)c1cccc(I)c1C(=O)NC(C)(C)C[S+](C)[O-] (stereo not drawn) [Q27-152] | – | B or higher
Cc1ncoc1NC(=O)c1cccc(I)c1C(=O)NC(C)C [Q10-7] | B or higher | –

Reference: US6875768B1, “Phthalamide derivatives, intermediates in the production thereof, and agricultural/horticultural insecticides and method for using the same” (Nihon Nohyako Co., Ltd., priority 1999, dated 2005)
